The record followed here is patent US4758579A, “Fluoroalkoxy substituted benzimidazoles useful as gastric acid secretion inhibitors” (BYK Gulden Lomberg Chemische Fabrik GmbH, priority 1984, dated 1988).

For orientation: ED50 means the dose at which the effect has come halfway, by size or by number of responders.

Assay [1] relates to formation of gastric lesions. Nature of the assay: Antiulcerogenic action in Shay rats: protective action on the stomach (lesion index after pylorus ligature and oral acetylsalicylic acid). The assay is classed as in vivo. The settings on record: rat, p.o., pylorus ligature (4 hours; Shay rat) + 100 mg/kg acetylsalicylic acid, dose reducing lesion index by 50% vs control, read-out: Protective action on the stomach (rat) inhibition of the lesion index ED50. As to the method:
(§1) The compounds according to the invention investigated appear in the following table:
(§2) The influence of the compounds investigated on the formation of gastric lesions triggered by pylorus ligature (4 hours; Shay rat) and oral administration of 100 mg/kg of acetylsalicylic acid on the inhibition of gastric secretion (HCl) in rats during 4 hours is shown in the following table:
(§3) The antiulcerogenic action was tested in Shay rats:
(§4) Ulcers were provoked in rats which had fasted for 24 hours (female, 180-200 g, 4 animals per cage on a high grid) by pylorus ligature (under diethyl ether anesthesia) and oral administration of 100 mg/10 ml/kg of acetylsalicylic acid. The substances to be tested are administered orally (10 ml/kg) one hour before the pylorus ligature. The wound is closed by means of Michel clamps. 4 hours thereafter, the animals are sacrificed under ether anesthesia by atlas dislocation and the stomach is resected. The stomach is opened longitudinally and fixed to a cork plate, after first determining the amount of secreted gastric juice (volume) and later its HCl content (titration with sodium hydroxide solution). The number and size (=diameter) of ulcers present are determined with a stereomicroscope with 10-fold magnification. The product of the degree of severity (according to the following points scale) and number of ulcers serves as the individual lesion index.
ulcer diameter 0.1-1.4 mm
(§5) The reduction in the average lesion index of each treated group compared with that of the control group (=100%) serves as a measure of the antiulcerogenic effect.

Assay [2] concerns HCl secretion in the stomach. The assay can be described thus: Inhibition of gastric secretion (HCl) in the stomach of the Shay rat over 4 hours. The settings on record: total of 4 hours; for ED25 / ED50: po; for ED25: dose reducing HCl secretion by 25% vs control; for ED50: dose reducing HCl secretion by 50% vs control; for % inhibition of HCl secretion: after administration of the antiulcerous ED50. Type of assay: in vivo. As to the method:
as §1, §2
ED25+ and ED50+ = dose which reduces the lesion index and the HCL
secretion (over 4 hours) in the rat stomach by 25% and 50% in the treated
group in comparison with the control group.
(++) = after administration of the antiulcerous ED50
as §3, §4, §5

For the compound `COc1cnc(CSc2nc3cc4c(cc3[nH]2)OC(F)(F)O4)cc1OC` [Serial No. 4, 2,2-difluoro-6-[(4,5-dimethoxy-2-pyridyl)methylthio]-5H-[1,3]-dioxolo[4,5-f]benzimidazole], the ED50 in assay [1] was 3.5 mg/kg. Besides, in assay [2], the ED25 was found to be 3 mg/kg, it took a dose of 6.5 mg/kg to reach the 50% effect level (ED50) and the “% inhibition of HCl secretion” value came to 28%.

For the compound `COc1cnc(C[S+]([O-])c2nc3cc(OC(F)(F)C(F)F)ccc3[nH]2)cc1OC` (centres unmarked) [Serial No. 3, 2-[(4,5-dimethoxy-2-pyridyl)methylsulfinyl]-5-(1,1,2,2-tetrafluoroethoxy)-1H-benzimidazole], the ED50 in assay [1] was found to be 0.6 mg/kg. Also, in assay [2], the ED25 is ~1 mg/kg, the ED50 came to 3.4 mg/kg and the “% inhibition of HCl secretion” value turned out to be 18%.

As to `COc1cnc(C[S+]([O-])c2nc3cc(OC(F)(F)F)ccc3[nH]2)cc1OC` (centres unmarked) [Serial No. 1, 2-[(4,5-Dimethoxy-2-pyridyl)methylsulfinyl]-5-trifluoromethoxy-1H-benzimidazole], the ED50 in assay [1] came out at 0.6 mg/kg. In assay [2], the ED25 amounted to 1 mg/kg, the ED50 is ~3 mg/kg and the “% inhibition of HCl secretion” value stood at 15%.

In the case of `COc1cnc(C[S+]([O-])c2nc3cc4c(cc3[nH]2)OC(F)(F)O4)cc1OC` (centres unmarked) [Serial No. 5, 2,2-Difluoro-6-[(4,5-dimethoxy-2-pyridyl)methylsulfinyl]-5H-[1,3]-dioxolo[4,5-f]benzimidazole], the ED50 in assay [1] is ~1 mg/kg. For the same compound, in assay [2], the ED25 was found to be 1 mg/kg, the ED50 amounted to 3 mg/kg and the “% inhibition of HCl secretion” value amounted to 25%.

For the compound `COc1cnc(C[S+]([O-])c2nc3cc(OC(F)(F)F)ccc3[nH]2)c(C)c1OC` (centres unmarked) [Serial No. 2, 2-[(4,5-Dimethoxy-3-methyl-2-pyridyl)methylsulfinyl]-5-trifluoromethoxy-1H-benzimidazole], in assay [1], the ED50 came out at 0.8 mg/kg. Besides, in assay [2], the ED25 worked out at 0.7 mg/kg, the ED50 came out at 1.7 mg/kg and the “% inhibition of HCl secretion” value is recorded as 25%.
